# Laboratory results: patent US10633419B2, “Immunomodulators” (BRISTOL-MYERS SQUIBB COMPANY, priority 2014, dated 2020)
# Positions of bridges follow the written chain, without caps; N, C: chain ends. Non-standard residues stand in square brackets, D forms with d. Residues, ends and D or L forms follow the SMILES beside them. *: point of attachment. X6 = O=C(O)CCCCCCCCCCCCCCCCC(=O)N[C@@H](CCC(=O)NCCCOCCOCCOCCCN*)C(=O)O; CH3O(CH2CH2O)11CH2CH2CO = COCCOCCOCCOCCOCCOCCOCCOCCOCCOCCOCCOCCC(=O)*; X13 = O=C(O)CCCCCCCCCCCCCCC(=O)N[C@@H](CCC(=O)NCCCOCCOCCOCCCN*)C(=O)O; Ala(1-CH2COOH-inden-3-yl) = N[C@@H](CC1=CC(CC(=O)O)c2ccccc21)C(=O)O; Trp(1-CH2COOH) = N[C@@H](Cc1cn(CC(=O)O)c2ccccc12)C(=O)O; d(cisHyp) = O=C(O)[C@H]1C[C@@H](O)CN1; PEG6 = NCCOCCOCCOCCOCCOCCOCCC(=O)O; Hyp = O=C(O)[C@@H]1C[C@@H](O)CN1; NHhexadecyl = CCCCCCCCCCCCCCCCN*; NMeF = CN[C@@H](Cc1ccccc1)C(=O)O; NMeE = CN[C@@H](CCC(=O)O)C(=O)O; NMeNle = CCCC[C@H](NC)C(=O)O; Pip = O=C(O)[C@@H]1CCCCN1; NMeA = CN[C@@H](C)C(=O)O; Pra = C#CC[C@H](N)C(=O)O; Aun = NCCCCCCCCCCC(=O)O; Dab = NCC[C@H](N)C(=O)O; Dap = NC[C@H](N)C(=O)O; Sar = CNCC(=O)O
# Target: T1, PD-L1 (Homo sapiens, UniProt Q9NZQ7)
# T1 construct: hPDL1(19-239)-TVMV-His; made in house; host or cells: HEK293T
# T1 sequence (Q9NZQ7 with tags, fused parts or gaps): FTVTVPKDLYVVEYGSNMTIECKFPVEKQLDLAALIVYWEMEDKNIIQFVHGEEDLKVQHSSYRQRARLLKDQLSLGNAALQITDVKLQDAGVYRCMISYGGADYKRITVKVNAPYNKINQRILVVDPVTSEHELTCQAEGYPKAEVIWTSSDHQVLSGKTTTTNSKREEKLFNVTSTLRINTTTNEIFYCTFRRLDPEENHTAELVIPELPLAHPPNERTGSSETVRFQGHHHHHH
# Test: PD-1/PD-L1 Homogenous Time-Resolved Fluorescence (HTRF) binding assay (PD-1-Ig/PD-L1-His)
# Details: not given
# From the text: The ability of the macrocyclic peptides of the present disclosure to bind to PD-L1 was investigated using a PD-1/PD-L1 Homogenous Time-Resolved Fluorescence (HTRF) binding assay.
# Homogenous Time-Resolved Fluorescence (HTRF) Assays of Binding of Soluble PD-1 to Soluble PD-L1. Soluble PD-1 and soluble PD-L1 refers to proteins with carboxyl-end truncations that remove the transmembrane-spanning regions and are fused to heterologous sequences, specifically the Fc portion of the human immunoglobuling G sequence (Ig) or the hexahistidine epitope tag (His). All binding studies were performed in an HTRF assay buffer consisting of dPBS supplemented with 0.1% (w/v) bovine serum albumin and 0.05% (v/v) Tween-20. For the PD-1-Ig/PD-L1-His binding assay, inhibitors were pre-incubated with PD-L1-His (10 nM final) for 15 m in 4 μl of assay buffer, followed by addition of PD-1-Ig (20 nM final) in 1 μl of assay buffer and further incubation for 15m. PD-L1 fusion proteins from either human, cynomologous macaques, mouse, or other species were used. HTRF detection was achieved using europium crypate-labeled anti-Ig monoclonal antibody (1 nM final) and allophycocyanin (APC) labeled anti-His monoclonal antibody (20 nM final). Antibodies were diluted in HTRF detection buffer and 5 μl was dispensed on top of binding reaction. The reaction was allowed to equilibrate for 30 minutes and signal (665 nm/620 nm ratio) was obtained using an EnVision fluorometer. Additional binding assays were established between PD-1-Ig/PD-L2-His (20 and 5 nM, respectively), CD80-His/PD-L1-Ig (100 and 10 nM, respectively) and CD80-His/CTLA4-Ig (10 and 5 nM, respectively). Binding/competition studies between biotinylated Compound No. 71 and human PD-L1-His were performed as follows. Macrocyclic peptide inhibitors were pre-incubated with PD-L1-His (10 nM final) for 60 minutes in 4 μl of assay buffer followed by addition of biotinylated Compound No. 71 (0.5 nM final) in 1 μl of assay buffer. Binding was allowed to equilibrate for 30 minutes followed by addition of europium crypated labeled Streptavidin (2.5 pM final) and APC-labeled anti-His (20 nM final) in 5 μl of HTRF buffer. The reaction was allowed to equilibrate for 30m and signal (665 nm/620 nm ratio) was obtained using an EnVision fluorometer.
# Recombinant Proteins. Carboxyl-truncated human PD-1 (amino acids 25-167) with a C-terminal human Ig epitope tag [hPD-1 (25-167)-3S-IG] and human PD-L1 (amino acids 18-239) with a C-terminal His epitope tag [hPD-L1(19-239)-tobacco vein mottling virus protease cleavage site (TVMV)-His] were expressed in HEK293T cells and purified sequentially by recombinant Protein A affinity chromatography and size exclusion chromatography. Human PD-L2-His (Sino Biologicals), CD80-His (Sino Biologicals), CTLA4-Ig (RnD Systems) were all obtained through commercial sources.
row,Compound,IC50 [nM]
1,CCCC[C@H]1C(=O)N(C)[C@@H](CCCC)C(=O)N[C@@H](CCC(=O)O)C(=O)N[C@H](C(=O)NCC(=O)N[C@@H](Cc2cn(CCOCCOCCOCCOCCOCCOC(=O)CCC(=O)Oc3c(C)c(C)c4c(c3C)CC[C@@](C)(CCC[C@H](C)CCC[C@H](C)CCCC(C)C)O4)nn2)C(=O)NCC(N)=O)CSCC(=O)N[C@@H](Cc2ccc(O)cc2)C(=O)N(C)[C@@H](C)C(=O)N[C@@H](CC(=O)O)C(=O)N2CCC[C@H]2C(=O)N[C@@H](Cc2c[nH]cn2)C(=O)N[C@@H](CCCCN)C(=O)N2C[C@H](O)C[C@H]2C(=O)N[C@@H](Cc2c[nH]c3ccccc23)C(=O)N[C@@H](CCCCN)C(=O)N[C@@H](Cc2c[nH]c3ccccc23)C(=O)N1C [Example 14053],100 to 1600

# Same assay, conditions: inhibition of PD-1-Ig binding to PD-L1-TVMV-His; value given as range class; read-out: HTRF IC50
row,Compound,IC50 [nM]
1,"C#CC[C@H](NC(=O)CNC(=O)[C@@H]1CSCC(=O)N[C@@H](Cc2ccc(O)cc2)C(=O)N(C)[C@@H](C)C(=O)N[C@@H](CC(=O)O)C(=O)N2CCC[C@H]2C(=O)N[C@@H](Cc2c[nH]cn2)C(=O)N[C@@H](CCC(N)=O)C(=O)N2C[C@H](O)C[C@H]2C(=O)N[C@@H](Cc2c[nH]c3ccccc23)C(=O)N[C@@H](CO)C(=O)N[C@@H](Cc2c[nH]c3ccccc23)C(=O)N(C)[C@@H](CCCC)C(=O)N(C)[C@@H](CCCC)C(=O)N[C@@H](CCC(=O)O)C(=O)N1)C(N)=O [INT 1400H, ClAc-Tyr-mAla-Asp-Pro-His-Gln-Hyp-Trp-Ser-Trp-mNle-mNle-Glu-Cys-Gly-[(S)-propargylglycine]] ({CH2CO}-Y[NMeA]DPHQ[Hyp]WSW[NMeNle][NMeNle]ECG[Pra]-NH2; thioether N-14)",0.3 to 9.9
2,CCCC[C@H]1C(=O)N(C)[C@@H](CCCC)C(=O)N[C@@H](CC(C)C)C(=O)N[C@H](C(=O)NCCCCCCCCCCC(=O)O)CSCC(=O)N[C@@H](Cc2ccc(O)cc2)C(=O)N(C)[C@@H](C)C(=O)N[C@@H](CC(N)=O)C(=O)N2CCC[C@H]2C(=O)N[C@@H](Cc2cnc[nH]2)C(=O)N[C@@H](CCC(=O)O)C(=O)N2C[C@H](O)C[C@H]2C(=O)N[C@@H](Cc2c[nH]c3ccccc23)C(=O)N[C@@H](CCN)C(=O)N[C@@H](CC2=CC(CC(=O)O)c3ccccc32)C(=O)N1C (some centres unmarked) [Example 11076] ({CH2CO}-Y[NMeA]NPHE[Hyp]W[Dab][Ala(1-CH2COOH-inden-3-yl)][NMeNle][NMeNle]LC[Aun]-OH; thioether N-14),10 to 99
3,CCCCCCCCCCCCCCCCNC(=O)CNC(=O)CNC(=O)[C@@H]1CSCC(=O)N[C@@H](Cc2ccc(O)cc2)C(=O)N(C)[C@@H](C)C(=O)N[C@@H](CC(N)=O)C(=O)N2CCC[C@H]2C(=O)N[C@@H](CCC(=O)O)C(=O)N[C@@H](CC(C)C)C(=O)N2C[C@H](O)C[C@H]2C(=O)N[C@@H](Cc2c[nH]c3ccccc23)C(=O)N[C@@H](CO)C(=O)N[C@@H](Cc2c[nH]c3ccccc23)C(=O)N(C)[C@@H](CCCC)C(=O)N(C)[C@@H](CCCC)C(=O)N[C@@H](CCCNC(=N)N)C(=O)N1 [Example 11109] ({CH2CO}-Y[NMeA]NPEL[Hyp]WSW[NMeNle][NMeNle]RCGG-NHhexadecyl; thioether N-14),100 to 1600
4,CCCC[C@H]1C(=O)N(C)[C@@H](CCCC)C(=O)N[C@@H](CCC(=O)O)C(=O)N[C@H](C(=O)NCC(=O)N[C@@H](Cc2cn(CCOCCOCCOCCOCCOCCOCCOCCOCCOCCOCCOCCNC(=O)CC[C@H](NC(=O)CCCCCCCCCCCCCCCCC(=O)O)C(=O)O)nn2)C(=O)O)CSCC(=O)N[C@@H](Cc2ccc(O)cc2)C(=O)N2CCCC[C@H]2C(=O)N[C@@H](CC(N)=O)C(=O)N2CCC[C@H]2C(=O)N[C@@H](CNC)C(=O)N[C@@H](CC(C)C)C(=O)N2C[C@H](O)C[C@H]2C(=O)N[C@@H](Cc2c[nH]c3ccccc23)C(=O)N[C@@H](CCN)C(=O)N[C@@H](Cc2cn(CC(=O)O)c3ccccc23)C(=O)N1C [Example 14107],100 to 1600
5,CCCC[C@H]1C(=O)N(C)[C@@H](CCCC)C(=O)N[C@@H](CC(C)C)C(=O)N[C@H](C(=O)NCCCOCCOCCOCCCNC(=O)CC[C@H](NC(=O)CCCCCCCCCCCCCCC(=O)O)C(=O)O)CSCC(=O)N[C@@H](Cc2ccc(O)cc2)C(=O)N(C)[C@@H](C)C(=O)N[C@@H](CC(N)=O)C(=O)N2CCC[C@H]2C(=O)N[C@@H](CN)C(=O)N[C@@H](CC(C)C)C(=O)N2C[C@H](O)C[C@@H]2C(=O)N[C@@H](Cc2c[nH]c3ccccc23)C(=O)N[C@@H](CCN)C(=O)N[C@@H](Cc2cn(CC(=O)O)c3ccccc23)C(=O)N1C [Example 11161] ({CH2CO}-Y[NMeA]NP[Dap]L[d(cisHyp)]W[Dab][Trp(1-CH2COOH)][NMeNle][NMeNle]LC-X13; thioether N-14),100 to 1600
6,CCCC[C@H]1C(=O)N(C)[C@@H](CCCC)C(=O)N[C@@H](CC(C)C)C(=O)N[C@H](C(=O)NCC(=O)N[C@@H](CC(=O)NCCCOCCOCCOCCCNC(=O)CC[C@H](NC(=O)CCCCCCCCCCCCCCCCC(=O)O)C(=O)O)C(=O)O)CSCC(=O)N[C@@H](Cc2ccc(O)cc2)C(=O)N2CCCC[C@H]2C(=O)N[C@@H](CC(N)=O)C(=O)N2CCC[C@H]2C(=O)N[C@@H](CN)C(=O)N[C@@H](CC(C)C)C(=O)N2C[C@H](O)C[C@H]2C(=O)N[C@@H](Cc2c[nH]c3ccccc23)C(=O)N[C@@H](CCN)C(=O)N[C@@H](Cc2cn(CC(=O)O)c3ccccc23)C(=O)N1C [Example 11262] ({CH2CO}-Y[Pip]NP[Dap]L[Hyp]W[Dab][Trp(1-CH2COOH)][NMeNle][NMeNle]LCGD(X6)-OH; thioether N-14),10 to 99
7,CCCC[C@H]1C(=O)N(C)[C@@H](CCCC)C(=O)N[C@@H](CCC(=O)O)C(=O)N[C@H](C(=O)NCC(=O)N[C@@H](Cc2cn(CC[C@H](NC(=O)CCCCCCCCCCCCCCC(=O)O)C(=O)O)nn2)C(=O)NCC(N)=O)CSCC(=O)N[C@@H](Cc2ccc(O)cc2)C(=O)N(C)[C@@H](C)C(=O)N[C@@H](CC(=O)O)C(=O)N2CCC[C@H]2C(=O)N[C@@H](Cc2c[nH]cn2)C(=O)N[C@@H](CCC(N)=O)C(=O)N2C[C@H](O)C[C@H]2C(=O)N[C@@H](Cc2c[nH]c3ccccc23)C(=O)N[C@@H](CO)C(=O)N[C@@H](Cc2c[nH]c3ccccc23)C(=O)N1C [Example 14069],10 to 99
8,CCCC[C@H]1C(=O)N(C)[C@@H](CCCC)C(=O)N[C@@H](CC(C)C)C(=O)N[C@H](C(=O)NCCOCCOCCOCCOCCOCCOCCC(=O)O)CSCC(=O)N[C@@H](Cc2ccc(O)cc2)C(=O)N(C)[C@@H](C)C(=O)N[C@@H](CC(N)=O)C(=O)N2CCC[C@H]2C(=O)N[C@@H](CO)C(=O)N[C@@H](CCC(N)=O)C(=O)N2C[C@H](O)C[C@@H]2C(=O)N[C@@H](Cc2c[nH]c3ccccc23)C(=O)N[C@@H](CN)C(=O)N[C@@H](Cc2cn(CC(=O)O)c3ccccc23)C(=O)N1C [Example 11046] ({CH2CO}-Y[NMeA]NPSQ[d(cisHyp)]W[Dap][Trp(1-CH2COOH)][NMeNle][NMeNle]LC[PEG6]-OH; thioether N-14),10 to 99
9,CCCC[C@H]1C(=O)N(C)CC(=O)N[C@@H](CC(=O)O)C(=O)N[C@@H](C(C)C)C(=O)N(C)[C@@H](Cc2ccccc2)C(=O)N[C@@H](Cc2ccc(O)cc2)C(=O)N(C)[C@@H](CCC(=O)O)C(=O)N[C@@H](Cc2c[nH]c3ccccc23)C(=O)N[C@@H](Cc2ccc(O)cc2)C(=O)N[C@@H](CC(C)C)C(=O)N[C@H](C(=O)NCC(=O)NCC(=O)NCC(=O)N[C@@H](CCCCNC(=O)CCOCCOCCOCCOCCOCCOCCOCCOCCOCCOCCOCCOC)C(N)=O)CSCC(=O)N[C@@H](Cc2ccccc2)C(=O)N(C)[C@@H](Cc2ccccc2)C(=O)N1C [Example 3621] ({CH2CO}-F[NMeF][NMeNle][Sar]DV[NMeF]Y[NMeE]WYLCGGGK(CH3O(CH2CH2O)11CH2CH2CO)-NH2; thioether N-13),10 to 99
10,CCCC[C@H]1C(=O)N(C)[C@@H](CCCC)C(=O)N[C@@H](CC(C)C)C(=O)C[C@H](C(=O)NCC(=O)N[C@@H](CCC(=O)O)C(=O)NCCCOCCOCCOCCCNC(=O)CC[C@H](NC(=O)CCCCCCCCCCCCCCC(=O)O)C(=O)O)CSCC(=O)N[C@@H](Cc2ccc(O)cc2)C(=O)N(C)[C@@H](C)C(=O)N[C@@H](CC(N)=O)C(=O)N2CCC[C@H]2C(=O)N[C@@H](CN)C(=O)N[C@@H](CC(C)C)C(=O)N2C[C@H](O)C[C@H]2C(=O)N[C@@H](Cc2c[nH]c3ccccc23)C(=O)N[C@@H](CCN)C(=O)N[C@@H](Cc2cn(CC(=O)O)c3ccccc23)C(=O)N1C [Example 11184],10 to 99
